One data set has as its system Pseudomonas aeruginosa. Kind of data set: zone inhibition, pteridine in agar, drugs in well. Format: cell-based. The following applies: for complete zone inhibition, SMX (300) / zone including partial inhibition, SMX (300): SMX 300 μg/ml; for zone including partial inhibition, TMP (30): TMP 30 μg/ml; for complete zone inhibition, TMP + SMX (5) (100) / zone including partial inhibition, TMP + SMX (5) (100): TMP 5 + SMX 100 μg/ml. Here is the method: (§1) The pteridine was included in a soya peptone medium of low thymidine content (Wellcotest Sensitivity Test Agar) contained in a Petri-dish and the other component(s) added to the well resulting from the removal of a small plug from the medium. The surface of the medium was inoculated with the test organism and then incubated.

The test system of data set [1] is Staphylococcus aureus. In words: zone inhibition, pteridine in agar, drugs in well. In kind it is cell-based. The following applies: for complete zone inhibition, SMX (300) / zone including partial inhibition, SMX (300): SMX 300 μg/ml; for complete zone inhibition, TMP + SMX (5) (100) / zone including partial inhibition, TMP + SMX (5) (100): TMP 5 + SMX 100 μg/ml. Here is the method:
as §1

Data set [2] concerns Staphylococcus aureus. In words: M.I.C. in Wellcome Nutrient Agar, 18 hours at 37° C. In kind it is cell-based. Conditions: DMHP Nil.
The test system of data set [3] is Staphylococcus aureus N 491. Kind of data set: growth rate inhibition, turbidometric, Wellcome Nutrient Broth. In kind it is cell-based.
The subject of data set [4] is Staphylococcus aureus CN 491. In words: testing discs on standard nutrient medium. Format: cell-based. The following applies: per 6 mm filterpaper disc: TMP 1.25 μg, SMX 23.75 μg, DMHP 100 μg, as in label.
Data set [5] has as its system Streptococcus faecalis CN 478. Kind of data set: testing discs on standard nutrient medium. In kind it is cell-based. The following applies: per 6 mm filterpaper disc: TMP 1.25 μg, SMX 23.75 μg, DMHP 100 μg, as in label.
A further data set relates to Escherichia coli CN 314. In words: testing discs on standard nutrient medium. The following applies: per 6 mm filterpaper disc: TMP 1.25 μg, SMX 23.75 μg, DMHP 100 μg, as in label. Format: cell-based.
A further data set deals with Proteus vulgaris CN 329. Kind of data set: testing discs on standard nutrient medium. Conditions: per 6 mm filterpaper disc: TMP 1.25 μg, SMX 23.75 μg, DMHP 100 μg, as in label. In kind it is cell-based.
Data set [6] relates to Pseudomonas aeruginosa CN 200. In words: testing discs on standard nutrient medium. In kind it is cell-based. Conditions: per 6 mm filterpaper disc: TMP 1.25 μg, SMX 23.75 μg, DMHP 100 μg, as in label.
For a further data set, the system named is E. tenella. Kind of data set: coccidiosis screening test in chicks, E. tenella. Format: in vivo, Eimeria tenella. Conditions: Expt. 4; 100,000 oocysts; p.p.m SQX/DV/DMHP: b374 10/-/-; b375 -/20/-; b376 -/-/10; b377 10/-/10; b378 -/20/10; b379 10/20/-; b381 10/20/10; b382 20/-/-; b383 -/40/-; b384 -/-/20; b385 20/-/20; b386 -/40/20; b387 20/40/-; b389 20/40/20. Here is the method: "Screening tests" were performed to establish the effectiveness of the compounds of formula (I) both alone and in combination with a competitor and or an inhibitor and to determine the most useful levels of relative concentrations of each component in combatting or suppressing coccidiosis.
Groups of Ranger cockerels, housed in small, heated cages with wire floors situated in enironmentally controlled isolation rooms, were infected orally with sporulated oocysts of the Eimeria spp such as E. tenella or E. acervulina. The appropriate test compound(s), (DMHP, sulphaquinoxaline (SQX) or diaveridine (DV) or any combination of these) were incorporated in a small quantity of specially formulated laboratory ration deficient in Vitamin K (`L.D.4 mash`), as a 1/10 pre-mix, which was then mixed into the diet on a horizontal roller drum mixed and administered to groups of chicks one day prior to infection, leaving some groups as untreated controls. Administration was continued for several days, for example about 8 or 9 days.
The amount of damage, marked by lesions in the caecal walls was investigated in those chicks that died during the course of the experiment, and in those sacrificed on the final day of administration, and compared with the untreated controls as a basis for the determination of therapeutic activity. In addition the mortality rate and the percentage weight gains in the various groups were assessed. A marked or definite effect of the administered drug could be recognised even when the mortality rates were similar or identical, since the increase in the weight gains and the reduction of the extension of lesions indicated by the lesion score, is characteristic of an improvement. […]
4:1 sulphaquinoxaline/diaveridine mixtures at levels of 80/20, 60/15, 40/10 and 20/5 p.p.m. were administered alone and in combination with a wide range of low concentrations of DMHP to the birds.
The results of these screening tests are set forth in Table 4 showing the concentration of the various component compounds in parts per million of the bird's diet, the mortality from coccidiosis, the percentage weight gain, the lesion score the oocyst output, and the activity. The caecal lesion index is calculated using a score system where: […]
In addition a score of 4 is assigned to any bird that dies of coccidiosis during the experiment. [formula] In the activity column, +++, ++, +, ± and - relate respectively to very high, high, slight, doubtful and nil activity of the test drug against the Eimeria infection.

Another data set relates to Pasteurella multocida. In words: Pasteurella multocida infection in chicks. Format: in vivo. The following applies: for activity alone against Pasteurella multocida: Example 3 Experiment 1; for Cumulative Mortality on day 1: groups of 10 chicks, 15:85 TMP SQX p.p.m / DMHP p.p.m: b654 25/20, b655 25/10, b656 25/5, b657 12.5/20, b658 12.5/10, b659 12.5/5, b660 50/-, b661 25/-, b662 12.5/-, b665 TMP 15, b666 TMP 30, b667 SQX 85, b669 SQX 42.5.

Data set [7] has as its system Staphylococcus aureus. In words: microbe, parasite or virus in culture. Conditions: for Percentage of inoculum viable at 24 hrs.: DMHP Nil, Test 2. Here is the method:
The results are shown in Table 9 in which the bactericidal activity is expressed as the percentage of the original inoculum, measured by viable counts, which was alive after 24-hours' incubation at 37° C. The inoculum used gave a final concentration of 10^6 organisms per ml.

Where [8] appears, read: pteridine 3 μg/ml, TMP 30 μg/ml.
[9] abbreviates: pteridine 10 μg/ml, TMP 30 μg/ml.
Setting [10] is: Staphylococcus aureus, N491, 7 h, read-out: Percentage of inhibition at 7 hrs.
[11] abbreviates: Table 6, doses as in E56, listed as TMP.
Setting [12] is: Staphylococcus aureus, 24 h, read-out: Percentage of inoculum viable at 24 hrs.

Each structure is given as a SMILES string. Several values for one entry are separate records, joined by “and”; a condition that tells them apart may be missing. Equal values may be shown once. Where only a bound is given, the exact number is not on record here.

On to `CCC1(CC)Nc2nc(N)nc(O)c2N=C1CO` [R = CH2 OH R = R^2 = Et, 2-amino-4-hydroxy-6-hydroxymethyl-7,7-diethyl-7,8-dihydropteridine], for which the “complete zone inhibition, SMX (300)” value in the data set with Pseudomonas aeruginosa (pteridine 3 μg/ml) is recorded as 9.0 centimeters; in the data set on Pseudomonas aeruginosa (pteridine 10 μg/ml), 13 centimeters; with Staphylococcus aureus [1] (pteridine 3 μg/ml), 6.5 centimeters; in the data set on Staphylococcus aureus [1] (pteridine 10 μg/ml), 10.5 centimeters; in the data set on Staphylococcus aureus [1] (pteridine 30 μg/ml) it was 12.5 centimeters. Further, the “zone including partial inhibition, SMX (300)” value in the data set with Pseudomonas aeruginosa (pteridine 3 μg/ml) turned out to be 13.0 centimeters; in the data set with Pseudomonas aeruginosa (pteridine 10 μg/ml), 16.0 centimeters; in the data set on Staphylococcus aureus [1] (pteridine 3 μg/ml) it was 12.5 centimeters; in the data set with Staphylococcus aureus [1] (pteridine 10 μg/ml), 14.0 centimeters; with Staphylococcus aureus [1] (pteridine 30 μg/ml), 17.0 centimeters. Moreover, the “zone including partial inhibition, TMP (30)” value turned out to be 3.0 centimeters in the data set on Pseudomonas aeruginosa (pteridine 3 μg/ml); 5.0 centimeters with Pseudomonas aeruginosa (pteridine 10 μg/ml); 10.5 centimeters with Staphylococcus aureus [1] (setting [8]); 13.0 centimeters in the data set with Staphylococcus aureus [1] (setting [9]); 17.0 centimeters with Staphylococcus aureus [1] (pteridine 30 μg/ml, TMP 30 μg/ml). For the same compound, the “complete zone inhibition, TMP + SMX (5) (100)” value in the data set on Pseudomonas aeruginosa (pteridine 3 μg/ml) is 7.0 centimeters; in the data set on Pseudomonas aeruginosa (pteridine 10 μg/ml) it was 8.0 centimeters; with Staphylococcus aureus [1] (pteridine 3 μg/ml), 10.5 centimeters; with Staphylococcus aureus [1] (pteridine 10 μg/ml), 11.0 centimeters; with Staphylococcus aureus [1] (pteridine 30 μg/ml), 12.5 centimeters. The “zone including partial inhibition, TMP + SMX (5) (100)” value is listed as 10.0 centimeters in the data set with Pseudomonas aeruginosa (pteridine 3 μg/ml); 12.0 centimeters in the data set with Pseudomonas aeruginosa (pteridine 10 μg/ml); 12.5 centimeters in the data set on Staphylococcus aureus [1] (pteridine 3 μg/ml); 14.5 centimeters in the data set with Staphylococcus aureus [1] (pteridine 10 μg/ml); 17.0 centimeters in the data set with Staphylococcus aureus [1] (pteridine 30 μg/ml). The “synergism with TMP and SMX against Staphylococcus aureus” value in the data set on Staphylococcus aureus [1] (compared with DMHP) was “slightly more active than DMHP”. The “complete zone inhibition, TMP (30)” value is on record as 8.5 centimeters with Staphylococcus aureus [1] (setting [8]); 10.5 centimeters with Staphylococcus aureus [1] (setting [9]); 12.5 centimeters in the data set with Staphylococcus aureus [1] (pteridine 30 μg/ml in medium, TMP 30 μg/ml in well, about 6× magnification).
Consider `Cc1cc(NS(=O)(=O)c2ccc(N)cc2)no1` [Sulphamethoxazole, sulphamethoxazole], for which the “Sulphamethoxazole M.I.C.” value in the data set on Staphylococcus aureus [2] came to 1.0 µg/mL. In addition, the inhibition at 0.1 µg/mL in data set [3] (setting [10]) came out at 16%. Also, the “Size of zone in cm (×6 magnification)” value in data set [4] worked out at 26 cm; in [5] it was 0 cm; with Escherichia coli CN 314 it was 28 cm; in the data set with Proteus vulgaris CN 329 it was 36 cm; in data set [6], 32 cm.
`COc1ccc(Cc2cnc(N)nc2N)cc1OC` [DV, 2,4-diamino-5-(3',4'-dimethoxybenzyl) pyrimidine]: the “Mortality from Coccidiosis” value in the data set with E. tenella is 8/10 and 8/9. For the same compound, the “activity alone against Pasteurella multocida” value with Pasteurella multocida is “low activity alone”. For the same compound, in the data set on Pasteurella multocida (Table 5, doses as in E44), the “Average Weight of surviving chicks” value was 140.0 gm; the “Cumulative Mortality on day 2” value was 2 and 1; the “Cumulative Mortality on day 5” value is 6 and 5; the “Cumulative Mortality on day 6” value is 6 and 8. In the data set on Pasteurella multocida (Table 5, doses as in E44), the “Cumulative Mortality on day 7” value is 7 and 9; the “Cumulative Mortality on day 8” value was 7 and 10; the “Cumulative Mortality on day 9” value is given as 7; the “Cumulative Mortality on day 10” value is 7.
As for `Nc1ccc(S(=O)(=O)Nc2cnc3ccccc3n2)cc1` [SQX, sulphaquinoxaline], in the data set on E. tenella, the “Mortality from Coccidiosis” value is 8/10 and 9/10. Besides, in the data set on Pasteurella multocida, the “activity alone against Pasteurella multocida” value is listed as “good activity alone”. For the same compound, in the data set with Pasteurella multocida (Table 5, doses as in E44), the “Average Weight of surviving chicks” value is 259.5 gm and 234.0 gm; the “Cumulative Mortality on day 5” value is 1; the “Cumulative Mortality on day 6” value worked out at 1; the “Cumulative Mortality on day 7” value came to 1. In addition, in the data set on Pasteurella multocida (Table 5, doses as in E44), the “Cumulative Mortality on day 8” value turned out to be 1, the “Cumulative Mortality on day 9” value was 1 and the “Cumulative Mortality on day 10” value is given as 1. Besides, the “Weight gain (% of control)” value in the data set with Pasteurella multocida (Table 5, percentage of uninfected controls, doses as in E44) was 84 % of control and 69 % of control. In the data set on Pasteurella multocida (Table 6, doses as in E56), the “Cumulative Mortality on day 6” value was 1, the “Cumulative Mortality on day 7” value was found to be 1, the “Cumulative Mortality on day 8” value was determined as 1 and the “Cumulative Mortality on day 9” value came to 1. Moreover, in the data set with Pasteurella multocida (Table 6, doses as in E56), the “Cumulative Mortality on day 10” value worked out at 1 and the “Cumulative Mortality on day 11” value came out at 1. In addition, the “Cumulative Mortality on day 1” value in the data set with Pasteurella multocida (Table 6) came out at 0.
For `COc1cc(Cc2cnc(N)nc2N)cc(OC)c1OC` [Trimethoprim, 2,4-diamino-5-(3'4',5'-trimethoxybenzyl)pyrimidine], the “Cumulative Mortality on day 4” value in the data set with Pasteurella multocida (Table 6, doses as in E56) was 8. Moreover, in the data set on Pasteurella multocida (Table 6, doses as in E56), the “Cumulative Mortality on day 6” value came to 10. The “Cumulative Mortality on day 2” value with Pasteurella multocida (setting [11]) is 4 and 2. Also, in the data set with Pasteurella multocida (setting [11]), the “Cumulative Mortality on day 3” value was 4 and 5. In addition, in the data set with Pasteurella multocida (setting [11]), the “Cumulative Mortality on day 5” value was 10 and 8. The “Cumulative Mortality on day 1” value in the data set with Pasteurella multocida (Table 6) is 0. In data set [3], the “Percentage of inhibition at 7 hrs.” value is 6 and 12. The inhibition at 0.002 µg/mL in [3] (setting [10]) stood at 10%. In data set [3] (setting [10]), the inhibition at 0.004 µg/mL came out at 8%. Also, the viability at 0.3 µg/mL in the data set on Staphylococcus aureus [7] (setting [12]) was greater than 100%. The viability at 1 µg/mL in the data set with Staphylococcus aureus [7] (setting [12]) was greater than 100%. In addition, the “Percentage of inoculum viable at 24 hrs.” value in the data set with Staphylococcus aureus [7] (Trimethoprim 0.3 μg./ml) and with Staphylococcus aureus [7] (Trimethoprim 1.0 μg./ml) was greater than 100% throughout. Besides, the “Size of zone in cm (×6 magnification)” value in [4] was determined as 21 cm; in [5], 28 cm; with Escherichia coli CN 314, 34 cm; with Proteus vulgaris CN 329, 19 cm; in data set [6], 0 cm.

In general, inhibition refers to the share of the control response that was lost under treatment.

The record behind these values is US4795639A, “Potentiating formulations” (priority 1971, dated 1989).
